Experimental data taken from patent US20090298878A1, “OXIME COMPOUNDS AND THE USE THEREOF” (priority 2006, published 2009).

Each compound was assayed against T1, N-type calcium channel (NTCC) (Homo sapiens, UniProt Q00975) (assay: FLIPR calcium mobilization assay for N-type calcium channel (differentiated IMR32 cells)). Settings: about 1.0 μM or less; calcium mobilization and/or electrophysiological assay.
T1 construct: host or cells: IMR32 cells differentiated with dibutyryl cAMP and bromodeoxyuridine
T1 sequence (Q00975 whole entry): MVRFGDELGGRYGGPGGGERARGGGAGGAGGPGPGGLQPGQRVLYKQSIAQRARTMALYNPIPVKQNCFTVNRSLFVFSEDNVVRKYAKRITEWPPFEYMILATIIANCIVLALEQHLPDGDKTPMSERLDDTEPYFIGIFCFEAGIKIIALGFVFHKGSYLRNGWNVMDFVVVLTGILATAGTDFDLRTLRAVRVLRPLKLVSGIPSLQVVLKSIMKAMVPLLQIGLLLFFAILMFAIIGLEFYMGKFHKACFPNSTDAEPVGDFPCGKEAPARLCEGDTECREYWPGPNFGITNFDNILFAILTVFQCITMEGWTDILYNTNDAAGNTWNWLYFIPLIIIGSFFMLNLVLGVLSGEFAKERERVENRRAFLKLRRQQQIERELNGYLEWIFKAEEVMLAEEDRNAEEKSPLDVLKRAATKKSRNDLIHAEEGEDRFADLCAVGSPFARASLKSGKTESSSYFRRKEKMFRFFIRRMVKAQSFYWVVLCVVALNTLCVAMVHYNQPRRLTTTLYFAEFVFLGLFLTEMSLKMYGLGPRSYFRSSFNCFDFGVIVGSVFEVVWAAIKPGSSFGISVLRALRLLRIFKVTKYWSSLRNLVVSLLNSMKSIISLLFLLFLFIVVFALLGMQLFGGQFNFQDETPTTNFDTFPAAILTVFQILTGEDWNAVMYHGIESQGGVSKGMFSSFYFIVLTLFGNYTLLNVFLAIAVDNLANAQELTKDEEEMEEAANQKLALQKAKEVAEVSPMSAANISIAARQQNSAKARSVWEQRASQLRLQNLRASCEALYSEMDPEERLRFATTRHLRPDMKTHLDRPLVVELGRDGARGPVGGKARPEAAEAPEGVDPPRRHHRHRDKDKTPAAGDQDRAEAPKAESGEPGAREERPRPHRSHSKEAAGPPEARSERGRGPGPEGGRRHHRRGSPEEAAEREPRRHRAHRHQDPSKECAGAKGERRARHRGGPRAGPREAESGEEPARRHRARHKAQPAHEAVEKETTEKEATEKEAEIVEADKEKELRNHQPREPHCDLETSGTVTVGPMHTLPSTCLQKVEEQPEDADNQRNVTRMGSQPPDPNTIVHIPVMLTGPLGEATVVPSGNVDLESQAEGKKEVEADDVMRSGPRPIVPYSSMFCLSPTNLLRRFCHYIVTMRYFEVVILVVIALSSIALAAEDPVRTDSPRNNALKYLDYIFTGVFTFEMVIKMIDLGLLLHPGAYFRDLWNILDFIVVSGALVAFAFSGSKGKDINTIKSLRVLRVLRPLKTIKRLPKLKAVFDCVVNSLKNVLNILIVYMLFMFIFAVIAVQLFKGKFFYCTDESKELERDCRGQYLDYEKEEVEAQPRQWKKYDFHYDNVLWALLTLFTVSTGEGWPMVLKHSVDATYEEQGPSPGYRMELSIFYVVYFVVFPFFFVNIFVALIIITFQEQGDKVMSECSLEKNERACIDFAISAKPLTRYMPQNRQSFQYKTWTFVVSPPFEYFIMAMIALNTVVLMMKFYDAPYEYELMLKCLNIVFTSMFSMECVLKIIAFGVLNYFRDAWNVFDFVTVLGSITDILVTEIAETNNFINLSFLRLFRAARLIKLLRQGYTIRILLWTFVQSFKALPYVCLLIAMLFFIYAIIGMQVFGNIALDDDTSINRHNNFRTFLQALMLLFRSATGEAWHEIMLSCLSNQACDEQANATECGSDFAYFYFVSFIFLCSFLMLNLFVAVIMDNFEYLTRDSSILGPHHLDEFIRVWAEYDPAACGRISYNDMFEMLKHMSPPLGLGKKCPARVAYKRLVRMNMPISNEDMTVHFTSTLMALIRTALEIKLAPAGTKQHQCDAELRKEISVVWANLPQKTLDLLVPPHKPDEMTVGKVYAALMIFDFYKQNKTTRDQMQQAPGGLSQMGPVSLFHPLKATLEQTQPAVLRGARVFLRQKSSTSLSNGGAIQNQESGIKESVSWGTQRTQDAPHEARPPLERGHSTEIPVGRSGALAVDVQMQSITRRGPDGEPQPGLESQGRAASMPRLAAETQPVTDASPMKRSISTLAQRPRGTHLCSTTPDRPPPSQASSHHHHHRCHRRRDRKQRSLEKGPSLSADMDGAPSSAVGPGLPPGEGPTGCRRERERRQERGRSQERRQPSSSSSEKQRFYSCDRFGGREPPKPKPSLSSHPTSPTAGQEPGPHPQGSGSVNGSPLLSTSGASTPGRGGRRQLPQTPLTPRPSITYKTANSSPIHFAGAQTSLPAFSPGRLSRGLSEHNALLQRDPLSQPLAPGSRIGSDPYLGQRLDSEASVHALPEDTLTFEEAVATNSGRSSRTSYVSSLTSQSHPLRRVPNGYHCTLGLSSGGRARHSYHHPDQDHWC
Assay type: cell-based
How it was run: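 Human IMR32 cells differentiated 8 days (1 mM dibutyryl cAMP, 2.5 μM BrdU), pre-stimulated 1 h with 90 mM KCl plus compound (~846 pM–17 μM) and 5 μM nitrendipine, Fluo-4 loaded. FLIPR read basal fluorescence 315 s, then 90 mM KCl agonist added and fluorescence recorded 45 s; non-linear regression.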
`O=S(=O)(c1cccc(Cl)c1)N1CCC(=NOC(c2ccc(F)cc2)c2ccc(F)cc2)CC1` [Example 292, 1-(3-Chlorophenylsulfonyl)piperidin-4-one O-bis(4-fluorophenyl)methyl oxime] gave an IC50 of no more than 1000 nM. With `O=S(=O)(c1cccc(C(F)(F)F)c1)N1CCC(=NOCCC2CCCCC2)CC1` [Example 294, 1-(3-(Trifluoromethyl)phenylsulfonyl)piperidin-4-one O-2-cyclohexylethyl oxime] the IC50 was no more than 1000 nM. In the case of `O=c1cc(CON=C2CCN(S(=O)(=O)c3ccc(OC(F)(F)F)cc3)CC2)ccn1Cc1ccc(F)cc1` [Example 296, 1-(4-Fluorobenzyl)-4-((1-(4-(trifluoromethoxy)phenylsulfonyl)piperidin-4-ylideneaminooxy)methyl)pyridin-2(1H)-one], the IC50 is reported as no more than 1000 nM. In the case of `N#Cc1cccc(C(CN2CCOCC2)ON=C2CCN(S(=O)(=O)c3ccc(OC(F)(F)F)cc3)CC2)c1` (centres unmarked) [Example 302, 3-(2-Morpholino-1-(1-(4-(trifluoromethoxy)phenylsulfonyl)piperidin-4-ylideneaminooxy)ethyl)benzonitrile], the IC50 is reported as no more than 1000 nM. `CC(C)OCC(ON=C1CCN(S(=O)(=O)c2ccc(OC(F)(F)F)cc2)CC1)c1cccc(C#N)c1` (centres unmarked) [Example 303, 3-(2-Isopropoxy-1-(1-(4-(trifluoromethoxy)phenylsulfonyl)piperidin-4-ylideneaminooxy)ethyl)benzonitrile] showed an IC50 of no more than 1000 nM. Work on `N#Cc1cccc(C(COc2ccc(F)cc2)ON=C2CCN(S(=O)(=O)c3ccc(OC(F)(F)F)cc3)CC2)c1` (centres unmarked) [Example 304, 3-(2-(4-Fluorophenoxy)-1-(1-(4-(trifluoromethoxy)phenylsulfonyl)piperidin-4-ylideneaminooxy)ethyl)benzonitrile] yielded an IC50 of no more than 1000 nM. `O=S(=O)(c1ccc(OC(F)(F)F)cc1)N1CCC(=NOC(c2ccc(F)cc2)C2CC2)CC1` (centres unmarked) [Example 306, 1-(4-(Trifluoromethoxy)phenylsulfonyl)piperidin-4-one O-cyclopropyl(4-fluorophenyl)methyl oxime] showed an IC50 of no more than 1000 nM. `O=S(=O)(c1ccc(OC(F)(F)F)cc1)N1CCC(=NOC(c2cccc(C(F)(F)F)c2)C2CC2)CC1` (centres unmarked) [Example 307, 1-(4-(Trifluoromethoxy)phenylsulfonyl)piperidin-4-one O-cyclopropyl(3-(trifluoromethyl)phenyl)methyl oxime] showed an IC50 of no more than 1000 nM. With `O=S(=O)(c1cccc(C(F)(F)F)c1)N1CCC(=NOC2CCCCC2)CC1` [Example 309, 1-(3-(Trifluoromethyl)phenylsulfonyl)piperidin-4-one O-cyclohexyl oxime] the IC50 was no more than 1000 nM. In the case of `O=S(=O)(c1cccc(C(F)(F)F)c1)N1CCC(=NOCCc2ccccc2)CC1` [Example 310, 1-(3-(Trifluoromethyl)phenylsulfonyl)piperidin-4-one O-phenethyl oxime], the IC50 is reported as no more than 1000 nM. For `O=S(=O)(c1ccc(OC(F)(F)F)cc1)N1CCC(=NOCc2ccccc2-c2ccccc2)CC1` [Example 311, 1-(4-(Trifluoromethoxy)phenylsulfonyl)piperidin-4-one O-biphenyl-2-ylmethyl oxime], the IC50 was no more than 1000 nM. `O=S(=O)(c1ccc(OC(F)(F)F)cc1)N1CCC(=NOCc2ncccc2-c2ccccc2)CC1` [Example 313, 1-(4-(Trifluoromethoxy)phenylsulfonyl)piperidin-4-one O-(3-phenylpyridin-2-yl)methyl oxime] was tested, and the IC50 was no more than 1000 nM. Compound `O=c1ccc(CON=C2CCN(S(=O)(=O)c3ccc(OC(F)(F)F)cc3)CC2)cn1-c1ccc(F)cc1` [Example 314, 1-(4-Fluorophenyl)-5-((1-(4-(trifluoromethoxy)phenylsulfonyl)piperidin-4-ylideneaminooxy)methyl)pyridin-2(1H)-one] has an IC50 of no more than 1000 nM. For `N#Cc1ccc(-n2cc(CON=C3CCN(S(=O)(=O)c4ccc(OC(F)(F)F)cc4)CC3)ccc2=O)cc1` [Example 315, 4-(2-oxo-5-((1-(4-(trifluoromethoxy)phenylsulfonyl)piperidin-4-ylideneaminooxy)methyl)pyridin-1(2H)-yl)benzonitrile], the IC50 was no more than 1000 nM. Compound `O=S(=O)(c1ccc(NC2CC2)nc1)N1CCC(=NOCc2cccc(C(F)(F)F)c2)CC1` [Example 321, 1-(6-Cyclopropylaminopyridine-3-sulfonyl)piperidin-4-one O-(3-trifluoromethylbenzyl)oxime] has an IC50 of no more than 1000 nM. For `O=C(CN1CCC(=NOCc2cccc(C(F)(F)F)c2)CC1)NCc1cc(C(F)(F)F)cc(C(F)(F)F)c1` [Example 329, N-(3,5-Bis(trifluoromethyl)benzyl)-2-(4-(3-(trifluoromethyl)benzyloxyimino)piperidin-1-yl)acetamide], the IC50 was no more than 1000 nM. With `CC(C)CCON=C1CCN(S(=O)(=O)c2cccc(C(F)(F)F)c2)CC1` [Example 366, 1-(3-(Trifluoromethyl)phenylsulfonyl)piperidin-4-one O-isopentyl oxime] the IC50 was no more than 1000 nM. With `CCCCC(C)ON=C1CCN(S(=O)(=O)c2cccc(C(F)(F)F)c2)CC1` (centres unmarked) [Example 367, 1-(3-(Trifluoromethyl)phenylsulfonyl)piperidin-4-one O-hexan-2-yl oxime] the IC50 was no more than 1000 nM. `O=S(=O)(c1cccc(C(F)(F)F)c1)N1CCC(=NOC/C=C/c2ccccc2)CC1` [Example 368, 1-(3-(Trifluoromethyl)phenylsulfonyl)piperidin-4-one O-cinnamyl oxime] gave an IC50 of no more than 1000 nM.

Same assay, conditions: calcium mobilization in vitro assay, N-type calcium channel blockers
`O=C(CN1CCC(=NOC(c2ccc(F)cc2)c2ccc(F)cc2)CC1)Nc1cc(C(F)(F)F)cc(C(F)(F)F)c1` [Example 328, 2-(4-(Bis(4-fluorophenyl)methoxyimino)piperidin-1-yl)-N-(3,5-bis(trifluoromethyl)phenyl)acetamide] was tested, and the IC50 was 1100 nM.
